Results reported in the NIST ThermoML archive (doi:10.1016/j.jct.2017.06.005).
Numbers after ± are expanded uncertainties.

Conditions: 369.8 K; Liquid; Ebulliometric method (Recirculating still)

vapor or sublimation pressure: 100 ± 2 kPa
Compound: CCCO [propan-1-ol]
